Test [1] addresses T1, BTK (Homo sapiens (Human), UniProt Q06187). Kind of test: Determination of drug-kinase residence time (TR-FRET tracer competition, occupancy after washout). The conditions noted are these: 1.5 μM compound, 500 nM BTK. It counts as binding. The procedure: The experiment was conducted in a buffer consisting of 50 mM Hepes pH 7.5, 10 mM MgCl2, 0.01% Triton X-100, and 1 mM EGTA.
The mixture was then diluted 5-fold by addition of 40 μL of buffer. […] In order to probe for reversibility of the kinase-compound binding interaction, a competition solution containing both a high affinity fluorescent tracer and an antibody coupled to Europium was prepared. […] The competition solution also contained 80 nM of an Anti-polyhistidine antibody coupled to Europium (Invitrogen Cat. #PV5596) which is designed to bind the polyhistidine purification tag in BTK.
It is to be expected that covalent and slow dissociating inhibitors will block binding of the tracer while rapidly dissociating non-covalent inhibitors will not. […] Data were plotted at percentage of signal obtained in the absence of competitor compound. The background signal was obtained by omission of BTK from the reaction. […] If the compound is a reversible covalent inhibitor, the tracer will bind the target as the compound dissociates from the target.

The target in test [2] is T1, BTK. Kind of test: BTK enzymatic activity assay (Caliper-based kinase assay). It counts as biochemical. The conditions noted are these: human recombinant BTK 0.5 nM, ATP 16 μM, 3 h room temperature. The procedure: A Caliper-based kinase assay (Caliper Life Sciences, Hopkinton, Mass.) was used to measure inhibition of BTK kinase activity of a compound of the present disclosure. […] The reaction was then terminated with EDTA, final concentration 20 mM and the phosphorylated reaction product was quantified on a Caliper Desktop Profiler (Caliper LabChip 3000). […] This value is presented as the IC50.

T1 sequence (Q06187 whole entry): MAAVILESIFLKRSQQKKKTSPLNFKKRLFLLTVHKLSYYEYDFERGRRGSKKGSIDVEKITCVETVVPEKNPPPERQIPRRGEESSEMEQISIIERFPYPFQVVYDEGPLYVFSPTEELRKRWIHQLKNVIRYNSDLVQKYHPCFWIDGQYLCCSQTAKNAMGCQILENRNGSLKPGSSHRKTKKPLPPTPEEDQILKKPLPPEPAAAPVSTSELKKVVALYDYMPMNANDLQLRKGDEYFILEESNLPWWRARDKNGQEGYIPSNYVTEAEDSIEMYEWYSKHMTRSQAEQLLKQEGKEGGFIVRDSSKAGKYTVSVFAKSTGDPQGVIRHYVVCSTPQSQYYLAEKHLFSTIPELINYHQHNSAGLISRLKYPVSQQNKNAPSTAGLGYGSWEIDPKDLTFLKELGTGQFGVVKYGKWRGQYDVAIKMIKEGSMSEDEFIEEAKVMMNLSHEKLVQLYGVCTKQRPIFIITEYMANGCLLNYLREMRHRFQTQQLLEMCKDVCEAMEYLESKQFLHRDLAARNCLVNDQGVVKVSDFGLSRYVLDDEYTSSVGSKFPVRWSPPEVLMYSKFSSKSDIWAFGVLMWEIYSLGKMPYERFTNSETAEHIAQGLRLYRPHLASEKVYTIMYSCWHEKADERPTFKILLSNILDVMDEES

In the case of `CC(C)(C)C=C(C#N)C(=O)N1CCC[C@@H](n2c(=O)n(-c3ccc(Oc4ccccc4)cc3)c3c(N)nccc32)C1` [Compound 1, (R)-2-(3-(4-amino-2-oxo-3-(4-phenoxyphenyl)-2,3-dihydro-1H-imidazo[4,5-c]pyridin-1-yl)piperidine-1-carbonyl)-4,4-dimethylpent-2-enenitrile], the “% occupany at 1 h” value at BTK [1] (1 h of washout) worked out at 97.036%. Moreover, the “% occupany at 6 h” value on BTK [1] (6 h of washout) is recorded as 82.199%. In addition, the “% occupany at 24 h” value at BTK [1] (24 h of washout) was 70.975%. Further, the IC50 on BTK [2] worked out at 8.2 nM.

What is called IC50 is the point on the concentration scale where inhibition reaches its midpoint.

For the origin of these results see patent US9688676B2, “Tyrosine kinase inhibitors” (PRINCIPIA BIOPHARMA INC., priority 2015, dated 2017).
